Test results as given in ChEMBL document CHEMBL1201862, “PubChem BioAssay data set” (2004).
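Grown in 96-well plates, cells were treated for 48 hours with each compound at five concentrations. Insufficient inhibition: endpoint recorded as highest concentration tested. Abbreviation: GI50, concentration required for 50% inhibition of growth.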 Calls of active or inactive are those of the source. Cut-off read from the data, not from the text of the source: active = GI50 up to about 1.1 µM and inactive = higher.

Legend:
Test in all cases: NCI-60 cell line screen, 48 h
M19-MEL = test system: M19-MEL
SNB-78 = test system: SNB-78
HOP-18 = test system: HOP-18
RXF 631 = test system: RXF 631
LXFL 529 = test system: LXFL 529
XF498 = test system: XF498
DLD-1 = test system: DLD-1
KM-20L2 = test system: KM-20L2

CCOc1ccc(OP2(=O)NC(=O)C=C(C)N2)cc1 (configuration not stated)
GI50 (M19-MEL): > 100 µM (inactive)
GI50 (SNB-78): > 100 µM (inactive)
GI50 (HOP-18): > 100 µM (inactive)
GI50 (RXF 631): > 100 µM (inactive)
GI50 (LXFL 529): > 100 µM (inactive)
GI50 (XF498): > 100 µM (inactive)
GI50 (DLD-1): > 100 µM (inactive)
GI50 (KM-20L2): > 100 µM (inactive)

CC12CC3CC(C)(C1)CC(N=[N+]=[N-])(C3)C2
GI50 (M19-MEL): > 100 µM (inactive)
GI50 (SNB-78): > 100 µM (inactive)
GI50 (HOP-18): > 100 µM (inactive)
GI50 (LXFL 529): > 100 µM (inactive)
GI50 (XF498): > 100 µM (inactive)
GI50 (DLD-1): > 100 µM (inactive)

O=c1oc2cc(O)ccc2c2[nH]c3cc(O)ccc3c12
GI50 (M19-MEL): 27.9 µM (inactive)
GI50 (SNB-78): 43.7 µM (inactive)
GI50 (HOP-18): 50.5 µM (inactive)
GI50 (LXFL 529): 27.1 µM (inactive)
GI50 (XF498): 25.5 µM (inactive)
GI50 (DLD-1): 30.2 µM (inactive)
GI50 (KM-20L2): 37.2 µM (inactive)

C[N+](C)(C)CC1CCCC(C[N+](C)(C)C)C1O (configuration not stated)
GI50 (M19-MEL): > 100 µM (inactive)
GI50 (SNB-78): > 100 µM (inactive)
GI50 (HOP-18): > 100 µM (inactive)
GI50 (RXF 631): > 100 µM (inactive)
GI50 (LXFL 529): > 100 µM (inactive)
GI50 (DLD-1): > 100 µM (inactive)
GI50 (KM-20L2): > 100 µM (inactive)

CC1(C)Cc2cc(C(=O)O)c3c(c2C1=O)COCC3
GI50 (M19-MEL): > 100 µM (inactive)
GI50 (SNB-78): > 100 µM (inactive)
GI50 (HOP-18): > 100 µM (inactive)
GI50 (LXFL 529): > 100 µM (inactive)
GI50 (XF498): > 100 µM (inactive)
GI50 (DLD-1): > 100 µM (inactive)
GI50 (KM-20L2): > 100 µM (inactive)

CC(C)(C)C1CCC2c3c([nH]c4ccccc34)C3C(=O)N(c4ccccc4)C(=O)C3C2C1 (configuration not stated)
GI50 (M19-MEL): 7.66 µM (inactive)
GI50 (SNB-78): 5.5 µM (inactive)
GI50 (HOP-18): 4.76 µM (inactive)
GI50 (LXFL 529): 11.3 µM (inactive)
GI50 (XF498): 0.389 µM (active)
GI50 (DLD-1): 20.4 µM (inactive)

C[C@@]1(CBr)C[C@@](C)(/C=C/Cl)[C@@H](Cl)C[C@H]1Cl
GI50 (M19-MEL): 13.1 µM (inactive)
GI50 (SNB-78): 2.94 µM (inactive)
GI50 (HOP-18): 13.5 µM (inactive)
GI50 (RXF 631): 11.9 µM (inactive)
GI50 (LXFL 529): 10 µM (inactive)
GI50 (XF498): 11.7 µM (inactive)
GI50 (DLD-1): 13.6 µM (inactive)
GI50 (KM-20L2): 11.6 µM (inactive)

O=C(N/C(=C\c1c(O)ccc2ccccc12)c1nc2ccccc2[nH]1)c1ccccc1
GI50 (M19-MEL): > 100 µM (inactive)
GI50 (SNB-78): > 100 µM (inactive)
GI50 (HOP-18): > 100 µM (inactive)
GI50 (RXF 631): > 100 µM (inactive)
GI50 (LXFL 529): > 100 µM (inactive)
GI50 (XF498): > 100 µM (inactive)
GI50 (DLD-1): > 100 µM (inactive)
GI50 (KM-20L2): > 100 µM (inactive)

COC(=O)N/N=c1\cc(C(=O)Nc2ccc(C)c(C)c2)oc2cc(O)ccc12
GI50 (M19-MEL): > 100 µM (inactive)
GI50 (SNB-78): > 100 µM (inactive)
GI50 (HOP-18): > 100 µM (inactive)
GI50 (RXF 631): > 100 µM (inactive)
GI50 (LXFL 529): > 100 µM (inactive)
GI50 (XF498): > 100 µM (inactive)
GI50 (DLD-1): > 100 µM (inactive)
GI50 (KM-20L2): > 100 µM (inactive)

COc1cc2c(cc1OC)C1(c3ccc(Cl)cc3)ON=C(c3ccccc3)N1CS2 (configuration not stated)
GI50 (M19-MEL): > 100 µM (inactive)
GI50 (SNB-78): 4.56 µM (inactive)
GI50 (HOP-18): > 100 µM (inactive)
GI50 (RXF 631): > 100 µM (inactive)
GI50 (LXFL 529): > 100 µM (inactive)
GI50 (DLD-1): > 100 µM (inactive)
GI50 (KM-20L2): > 100 µM (inactive)

C/C(CC(=O)Nc1cccc(Cl)c1C)=N\N=C(N)N
GI50 (M19-MEL): > 100 µM (inactive)
GI50 (SNB-78): > 100 µM (inactive)
GI50 (HOP-18): > 100 µM (inactive)
GI50 (LXFL 529): > 100 µM (inactive)
GI50 (XF498): > 100 µM (inactive)
GI50 (DLD-1): > 100 µM (inactive)
GI50 (KM-20L2): 42.6 µM (inactive)

CC(=O)O/N=C(Cl)/C(Cl)=N/OC(C)=O
GI50 (SNB-78): > 100 µM (inactive)
GI50 (HOP-18): > 100 µM (inactive)
GI50 (LXFL 529): > 100 µM (inactive)
GI50 (XF498): > 100 µM (inactive)
GI50 (DLD-1): > 100 µM (inactive)
GI50 (KM-20L2): > 100 µM (inactive)

O=C1C(Cl)=C(Cl)C(=O)N1c1ccccc1Cl
GI50 (M19-MEL): > 100 µM (inactive)
GI50 (SNB-78): > 100 µM (inactive)
GI50 (HOP-18): > 100 µM (inactive)
GI50 (LXFL 529): > 53 µM (inactive)
GI50 (XF498): > 100 µM (inactive)
GI50 (DLD-1): > 52.2 µM (inactive)
GI50 (KM-20L2): > 100 µM (inactive)

O=[N+]([O-])c1cc(/C=N\NS(=O)(=O)c2ccc(Cl)cc2)c(O)c([N+](=O)[O-])c1
GI50 (M19-MEL): 48.3 µM (inactive)
GI50 (SNB-78): 38.1 µM (inactive)
GI50 (HOP-18): 42.3 µM (inactive)
GI50 (RXF 631): 28.6 µM (inactive)
GI50 (LXFL 529): 30.6 µM (inactive)
GI50 (DLD-1): 72.8 µM (inactive)
GI50 (KM-20L2): 28.3 µM (inactive)

COc1ccc(/C=C2\CNC/C(=C\c3ccc(OC)cc3)C2=O)cc1
GI50 (M19-MEL): > 100 µM (inactive)
GI50 (SNB-78): 28.1 µM (inactive)
GI50 (HOP-18): > 100 µM (inactive)
GI50 (LXFL 529): 21.8 µM (inactive)
GI50 (XF498): 63.2 µM (inactive)
GI50 (DLD-1): 21 µM (inactive)
GI50 (KM-20L2): 24.3 µM (inactive)

CN(C(=O)C12C3C4C1C1C2C3C41C#N)C(C)(C)C (configuration not stated)
GI50 (M19-MEL): > 100 µM (inactive)
GI50 (SNB-78): > 100 µM (inactive)
GI50 (RXF 631): > 100 µM (inactive)
GI50 (LXFL 529): > 100 µM (inactive)
GI50 (DLD-1): > 100 µM (inactive)
GI50 (KM-20L2): > 100 µM (inactive)

ON/N=C/c1cc2c(cc1Br)OCO2
GI50 (M19-MEL): > 386 µM (inactive)
GI50 (HOP-18): > 386 µM (inactive)
GI50 (RXF 631): > 386 µM (inactive)
GI50 (LXFL 529): > 386 µM (inactive)
GI50 (DLD-1): > 386 µM (inactive)
GI50 (KM-20L2): > 386 µM (inactive)

CN1C(c2ccccc2)CC(=NO)CC1c1ccccc1 (configuration not stated)
GI50 (M19-MEL): 37.5 µM (inactive)
GI50 (SNB-78): > 100 µM (inactive)
GI50 (RXF 631): 48.8 µM (inactive)
GI50 (LXFL 529): 52.8 µM (inactive)
GI50 (DLD-1): 41.8 µM (inactive)
GI50 (KM-20L2): 54.6 µM (inactive)

C#CC1(O)CCC2[C@@H]3CCc4cc(Oc5nc(F)nc(-c6c7ccccc7c(SCC)n6CCC)n5)ccc4C3CC[C@@]21C (some centres not stated)
GI50 (M19-MEL): > 100 µM (inactive)
GI50 (SNB-78): > 100 µM (inactive)
GI50 (HOP-18): 24.2 µM (inactive)
GI50 (RXF 631): > 100 µM (inactive)
GI50 (LXFL 529): 38.5 µM (inactive)
GI50 (XF498): > 100 µM (inactive)
GI50 (DLD-1): > 100 µM (inactive)
GI50 (KM-20L2): > 100 µM (inactive)
